Assay results from US20260108546A1 (ELI LILLY AND COMPANY, priority 2024, published 2026).
Counter-ions that a name gives are not always drawn.

Target: T1, hGIP-R (Homo sapiens, UniProt P48546)
T1 construct: expressed in transfected cells; host or cells: HEK-293 clonal cell lines
T1 sequence (P48546 22-466): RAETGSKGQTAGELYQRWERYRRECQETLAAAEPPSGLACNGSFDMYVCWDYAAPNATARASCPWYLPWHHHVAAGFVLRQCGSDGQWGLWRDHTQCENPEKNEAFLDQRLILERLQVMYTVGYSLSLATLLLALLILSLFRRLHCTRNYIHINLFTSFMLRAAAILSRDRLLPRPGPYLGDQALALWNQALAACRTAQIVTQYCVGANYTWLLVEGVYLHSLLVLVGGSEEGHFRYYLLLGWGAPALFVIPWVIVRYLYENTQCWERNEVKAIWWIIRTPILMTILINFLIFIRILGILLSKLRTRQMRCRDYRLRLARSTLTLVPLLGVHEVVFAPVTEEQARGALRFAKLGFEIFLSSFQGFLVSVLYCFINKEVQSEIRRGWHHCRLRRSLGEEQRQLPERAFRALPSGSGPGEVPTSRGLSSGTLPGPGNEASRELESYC
Assay: Functional hGIP-R Assay (cAMP formation, HTRF)
Assay type: cell-based
Conditions: for Emax: cAMP efficacy, percent of maximal response to GIP(1-42)OH, 37° C., 0.1% bovine casein, arithmetic mean ± SEM; for EC50: cAMP potency, HEK-293 cells expressing hGIP-R, incubated at 37° C. in the presence of 0.1% bovine casein, geometric mean, read-out: Human GIP-R EC50, nM (SEM, n)
Method in brief: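 Relative EC50 and Emax came from four-parameter logistic fits of cAMP as a percent of the human GIP (1-42) OH maximal response. The cAMP was measured by competitive HTRF after 30 min, 37 °C compound exposure of hGIP-R HEK-293 clones in IBMX (250 μM)-containing medium.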

SMILES | Emax [%] | EC50 [nM]
CC(C)(Cn1cc(C(F)(F)F)cn1)NC(=O)[C@@H](Cc1cnc2ncccn12)NC(=O)[C@H]1C[C@@H]1c1ccc(-c2cnc3nn(CC4CCC4)cc3c2)cc1 [Example 77, (1S,2S)-2-(4-(2-(Cyclobutylmethyl)-2H-pyrazolo[3,4-b]pyridin-5-yl)phenyl)-N-((R)-3-(imidazo[1,2-a]pyrimidin-3-yl)-1-((2-methyl-1-(4-(trifluoromethyl)-1H-pyrazol-1-yl)propan-2-yl)amino)-1-oxopropan-2-yl)cyclopropane-1-carboxamide] | 103 ± 12 | 88.2
CN(C(=O)[C@H]1C[C@@H]1c1ccc(-c2cnc3nn(C)cc3c2)cc1)[C@H](Cc1cnn(C)c1)C(=O)NC(C)(C)Cn1nc(C(F)(F)F)cc1-c1ccc[nH]c1=O [Example 32, (1S,2S)-N-Methyl-N-((R)-1-((2-methyl-1-(5-(2-oxo-1,2-dihydropyridin-3-yl)-3-(trifluoromethyl)-1H-pyrazol-1-yl)propan-2-yl)amino)-3-(1-methyl-1H-pyrazol-4-yl)-1-oxopropan-2-yl)-2-(4-(2-methyl-2H-pyrazolo[3,4-b]pyridin-5-yl)phenyl) cyclopropane-1-carboxamide] | 119 | 93.5
CC(C)(Cc1ccc(F)cc1)NC(=O)[C@@H](Cc1cnc2ncccn12)NC(=O)[C@H]1C[C@@H]1c1ccc(NC(=O)C2CC(F)(F)C2)cc1 [Example 48, 3,3-Difluoro-N-(4-((1S,2S)-2-(((R)-1-((1-(4-fluorophenyl)-2-methylpropan-2-yl)amino)-3-(imidazo[1,2-a]pyrimidin-3-yl)-1-oxopropan-2-yl)carbamoyl)cyclopropyl)phenyl)cyclobutane-1-carboxamide] | 56.5 ± 4.38 | 76.9
[2H]C([2H])([2H])N(C(=O)[C@H]1C[C@@H]1c1ccc(-c2cnc3nn(C)cc3c2)nc1C(F)F)[C@@H](Cc1cnn(C(F)F)c1)C(=O)NC(C)(C)Cn1nc(C(F)(F)F)cc1-c1cc(F)c(=O)n(C)c1 [Example 138, (1S,2S)-N-((S)-3-(1-(Difluoromethyl)-1H-pyrazol-4-yl)-1-((1-(5-(5-fluoro-1-methyl-6-oxo-1,6-dihydropyridin-3-yl)-3-(trifluoromethyl)-1H-pyrazol-1-yl)-2-methylpropan-2-yl)amino)-1-oxopropan-2-yl)-2-(2-(difluoromethyl)-6-(2-methyl-2H-pyrazolo[3,4-b]pyridin-5-yl)pyridin-3-yl)-N-(methyl-d3)cyclopropane-1-carboxamide] | 52.3 | 99.2
Cn1cc(C[C@@H](NC(=O)[C@H]2C[C@@H]2c2ccc(-c3cnc4nn(C)cc4c3)cc2)C(=O)NC(C)(C)Cn2nc(C(F)(F)F)cc2-c2n[nH]c(=O)s2)cn1 [Example 16, (1S,2S)-N-((R)-1-((2-Methyl-1-(5-(5-oxo-4,5-dihydro-1,3,4-thiadiazol-2-yl)-3-(trifluoromethyl)-1H-pyrazol-1-yl)propan-2-yl)amino)-3-(1-methyl-1H-pyrazol-4-yl)-1-oxopropan-2-yl)-2-(4-(2-methyl-2H-pyrazolo[3,4-b]pyridin-5-yl)phenyl) cyclopropane-1-carboxamide] | 104 ± 4.17 | 36
Cn1cc(C[C@@H](NC(=O)C2CC2c2ccc(-c3cnc4nn(C)cc4c3)s2)C(=O)NC(C)(C)Cn2nc(C(F)(F)F)cc2-c2ccc(=O)n(C)c2)cn1 (single isomer, unassigned; isomer 2) [Example 60] | 89.8 ± 3.63 | 189
Cn1cc(C[C@@H](NC(=O)[C@H]2C[C@@H]2c2ccc(NC(=O)Nc3ccc(F)cc3)cc2)C(=O)NC(C)(C)Cc2ccc(F)cc2)cn1 [Example 97, (1S,2S)-N—((R)-1-((1-(4-Fluorophenyl)-2-methylpropan-2-yl)amino)-3-(1-methyl-1H-pyrazol-4-yl)-1-oxopropan-2-yl)-2-(4-(3-(4-fluorophenyl)ureido)phenyl)cyclopropane-1-carboxamide] | 96.6 ± 4.57 | 38.6

The next compounds have a lower EC50 than those just listed; values first:

Emax [%] | EC50 [nM] | SMILES
90.3 | 1.81 | [2H]C([2H])([2H])n1cc(C[C@H](C(=O)NC(C)(C)Cn2nc(C(F)(F)F)cc2-c2cnc(C(C)(C)OP(=O)(O)O)nc2)N2CC[C@@]3(C[C@@H]3c3ccc(-c4cnc5nn(C)cc5c4)cc3Cl)C2=O)cn1 [Example 198, 2-(5-(1-(2-((R)-2-((1S,3R)-1-(2-Chloro-4-(2-methyl-2H-pyrazolo[3,4-b]pyridin-5-yl)phenyl)-4-oxo-5-azaspiro[2.4]heptan-5-yl)-3-(1-(methyl-d3)-1H-pyrazol-4-yl)propanamido)-2-methylpropyl)-3-(trifluoromethyl)-1H-pyrazol-5-yl)pyrimidin-2-yl)propan-2-yl dihydrogen phosphate, ammonia salt]
87.3 ± 0.526 | 4.65 | [2H]C([2H])([2H])n1cc(C[C@H](C(=O)NC(C)(C)Cn2nc(C(F)(F)F)cc2-c2cnc(C)nc2)N2CCC3(CC3c3ccc(-c4cnc5nn(C)cc5c4)nc3C(F)(F)F)C2=O)cn1 (single isomer, unassigned; isomer 1) [Example 115]
35.4 ± 1.96 | 7.75 | COc1nnc(C)cc1-c1cc(C(F)(F)F)nn1CC(C)(C)NC(=O)[C@@H](Cc1cnn(C(F)F)c1)N1CC[C@@]2(C[C@@H]2c2ccc(-c3cnc4nn(C)cc4c3)nc2C)C1=O [Example 180, (R)-3-(1-(difluoromethyl)-1H-pyrazol-4-yl)-N-(1-(5-(3-methoxy-6-methylpyridazin-4-yl)-3-(trifluoromethyl)-1H-pyrazol-1-yl)-2-methylpropan-2-yl)-2-((1R,3R)-1-(2-methyl-6-(2-methyl-2H-pyrazolo[3,4-b]pyridin-5-yl)pyridin-3-yl)-4-oxo-5-azaspiro[2.4]heptan-5-yl)propanamide]
62.1 ± 3.55 | 21.6 | Cn1cc2cc(-c3ccc([C@H]4C[C@@]45CCN([C@H](Cc4cnn(C(F)F)c4)C(=O)NC(C)(C)Cn4nc(C(F)(F)F)cc4-c4ccc(=O)n(C)c4)C5=O)cc3)cnc2n1 [Example 63, (R)-3-(1-(Difluoromethyl)-1H-pyrazol-4-yl)-N-(2-methyl-1-(5-(1-methyl-6-oxo-1,6-dihydropyridin-3-yl)-3-(trifluoromethyl)-1H-pyrazol-1-yl)propan-2-yl)-2-((1R,3R)-1-(4-(2-methyl-2H-pyrazolo[3,4-b]pyridin-5-yl)phenyl)-4-oxo-5-azaspiro[2.4]heptan-5-yl)propanamide]
72.4 ± 2.16 | 33.5 | [2H]C([2H])([2H])n1cc(-c2cc(C(F)(F)F)nn2CC(C)(C)NC(=O)[C@@H](Cc2cnn(C(F)F)c2)N2CC[C@@]3(C[C@@H]3c3ccc(-c4cnc5nn(C)cc5c4)cc3)C2=O)ccc1=O [Example 120, (R)-3-(1-(Difluoromethyl)-1H-pyrazol-4-yl)-N-(2-methyl-1-(5-(1-(methyl-d3)-6-oxo-1,6-dihydropyridin-3-yl)-3-(trifluoromethyl)-1H-pyrazol-1-yl)propan-2-yl)-2-((1R,3R)-1-(4-(2-methyl-2H-pyrazolo[3,4-b]pyridin-5-yl)phenyl)-4-oxo-5-azaspiro[2.4]heptan-5-yl)propanamide]
87.8 ± 8.06 | 34 | Cn1cc2cc(-c3ccc([C@H]4C[C@@H]4C(=O)N[C@H](Cc4cnc5ncccn45)C(=O)NC(C)(C)Cn4nc(C(F)(F)F)cc4-c4cn[nH]n4)cc3)cnc2n1 [Example 69, (1S,2S)-N-((R)-1-((1-(5-(2H-1,2,3-Triazol-4-yl)-3-(trifluoromethyl)-1H-pyrazol-1-yl)-2-methylpropan-2-yl)amino)-3-(imidazo[1,2-a]pyrimidin-3-yl)-1-oxopropan-2-yl)-2-(4-(2-methyl-2H-pyrazolo [3,4-b]pyridin-5-yl)phenyl)cyclopropane-1-carboxamide]
85.5 ± 0.117 | 1.33 | [2H]C([2H])([2H])n1cc(C[C@H](C(=O)NC(C)(C)Cn2nc(C(F)(F)F)cc2-c2cnc(C(C)(C)O)nc2)N2CC[C@@]3(C[C@@H]3c3ccc(-c4cnc5nn(C)cc5c4)cc3Cl)C2=O)cn1 [Example 193, (R)-2-((1S,3R)-1-(2-chloro-4-(2-methyl-2H-pyrazolo[3,4-b]pyridin-5-yl)phenyl)-4-oxo-5-azaspiro[2.4]heptan-5-yl)-N-(1-(5-(2-(2-hydroxypropan-2-yl)pyrimidin-5-yl)-3-(trifluoromethyl)-1H-pyrazol-1-yl)-2-methylpropan-2-yl)-3-(1-(methyl-d3)-1H-pyrazol-4-yl)propanamide]
96.6 ± 2.37 | 0.727 | Cc1nc(-c2cnc3nc(C4CC4)cn3c2)ccc1[C@H]1C[C@@]12CCN([C@H](Cc1cnn(C(F)F)c1)C(=O)NC(C)(C)Cn1nc(C(F)(F)F)cc1-c1ccn(C3CC3)c(=O)c1)C2=O [Example 145, (R)—N-(1-(5-(1-Cyclopropyl-2-oxo-1,2-dihydropyridin-4-yl)-3-(trifluoromethyl)-1H-pyrazol-1-yl)-2-methylpropan-2-yl)-2-((1R,3R)-1-(6-(2-cyclopropylimidazo[1,2-a]pyrimidin-6-yl)-2-methylpyridin-3-yl)-4-oxo-5-azaspiro[2.4]heptan-5-yl)-3-(1-(difluoromethyl)-1H-pyrazol-4-yl)propanamide]
92.1 ± 0.883 | 0.753 | Cc1cn2cc(-c3ccc(C4CC45CCN([C@H](Cc4cnn(C(F)F)c4)C(=O)NC(C)(C)Cn4nc(C(F)(F)F)cc4-c4ccn(C6CC6)c(=O)c4)C5=O)c(C4CC4)n3)cnc2n1 (single isomer, unassigned) [Example 167]
